Laboratory results: US8029764B2, “Methods for detection of colorectal cancer” (The Johns Hopkins University, priority 2001, dated 2011)

System: colorectal tissue transcripts
Test: SAGE of normal, adenoma and cancer colorectal tissue (transcript tag counts)
Design: species or system human
Description: In an effort to identify potential molecular markers of early colorectal tumors, we have here analyzed gene expression in benign and malignant colorectal tumors in an unbiased and comprehensive fashion. We used SAGE to analyze global gene expression in normal, benign and malignant colorectal tissue. SAGE is a gene expression profiling method that associates individual mRNA transcripts with 15-base tags derived from specific positions near their 3′ termini (3). The abundance of each tag provides a quantitative measure of the transcript level present within the mRNA population studied. SAGE is not dependent on pre-existing databases of expressed genes, and therefore provides an unbiased view of gene expression profiles. For the current study, SAGE libraries derived from two samples of normal colonic epithelium, two colorectal adenomas, and two colorectal cancers were analyzed.
SAGE. For the initial SAGE^3 of benign tumors, fresh adenomas were obtained from surgical specimens derived from FAP patients. Adenomas from FAP patients were employed because of the ready availability of small lesions and the certainty of inactivation of the APC pathway which initiates the formation of the majority of sporadic tumors. After histopathological verification of the neoplastic nature of the lesion (>70% neoplastic cells), total RNA was isolated by solubilizing the tissue in RNAgents Lysis Buffer (Promega, Madison, Wis.) followed by ultracentrifugation over a cesium chloride gradient. mRNA selection was performed from the purified total RNA using oligo(dT) cellulose (Life Technologies, Gaithersburg, Md.). […] Tags were extracted from the raw sequence data and, after excluding repeated ditags, linker sequences, and tags from the polyrnorphic Major Histocompatibility loci, the resulting tag libraries were compared and statistical analysis performed using SAGE software, version 4.0. Data from the libraries are publicly available at the Uniform Resource Locator (URL) address for the http file type found on the www host server that has a domain name of ncbi.nlm.nih.gov, and a path to the directory SAGE, and detailed SAGE protocols are available at the Uniform Resource Locator (URL) address for the http file type found on the www host server that has a domain name of sagenet.org, and file name of sage_protocol.htn.

[1] = normal colorectal tissue library 1
[2] = normal colorectal tissue library 2

Sequence	AD1 (SAGE tag count) (SAGE library AD1)	AD2 (SAGE tag count) (SAGE library AD2)	CA1 (SAGE tag count) (SAGE library CA1)	CA2 (SAGE tag count) (SAGE library CA2)	NC1 (SAGE tag count) (SAGE library NC1)	NC2 (SAGE tag count) (SAGE library NC2)	AD1 (SAGE tag count) (adenoma library 1)	AD2 (SAGE tag count) (adenoma library 2)	CA1 (SAGE tag count) (cancer library 1)	CA2 (SAGE tag count) (cancer library 2)	NC1 (SAGE tag count) [1]	NC2 (SAGE tag count) [2]
CCAAAGCTAT (chemistry not fully specified)	14	12	6	11	42	16						
CTGGATCTGG (chemistry not fully specified; the letters are possibly those of the target site)	3	9	5	10	21	21						
ATGCGGGAGA (chemistry not fully specified)	15	22	5	6	38	39						
GACGCGGCGC (chemistry not fully specified)	10	17	12	17	30	47						
CTGGGCCTCT (chemistry not fully specified)	2	2	3	3	22	22						
ATGATGGCAC (chemistry not fully specified; the letters are possibly those of the target site)	1	0	1	0	12	32						
CAAGAGTTTC (chemistry not fully specified)	0	0	0	0	14	2						
CTTACAAGCA (chemistry not fully specified)	2	3	4	3	21	13						
CCTGTCTGCC (chemistry not fully specified)	0	1	1	1	14	22						
GGGAAGCAGA (chemistry not fully specified)	18	4	8	9	32	17						
ATGCGGAGTC (chemistry not fully specified)	5	3	2	4	14	13						
AATCACAAAT (chemistry not fully specified)	1	4	14	3	18	45						
CTTATGGTCC (chemistry not fully specified)	0	1	1	0	36	11						
GACCAGCCCA (chemistry not fully specified)	3	2	12	5	23	21						
TATGATGAGC (chemistry not fully specified)							2	2	1	5	13	21
GGGCGCTGTG (chemistry not fully specified)	3	6	4	5	11	27						
TGCCGCCCGC (chemistry not fully specified)							2	2	1	0	14	5
TGATCTCTGT (chemistry not fully specified)							1	0	1	1	6	7
GCACCTGTCG (chemistry not fully specified)	0	0	1	0	2	9						
CCTGCTGCAG (chemistry not fully specified)	0	1	6	9	7	34						
TGCAGCGCCT (chemistry not fully specified; the letters are possibly those of the target site)							1	1	1	1	16	9
AGGTGACTGG (chemistry not fully specified)	0	0	0	0	10	14						
GAGCACCGTG (chemistry not fully specified)	1	0	0	1	7	4						
TGCAGCACGA (chemistry not fully specified)							5	30	24	16	6	185
ATCGTGGCGG (chemistry not fully specified)	19	25	20	10	193	92						
